Results published in the supplement of paper PMC11208160.

Assay: recombinant barcode read abundance after kanamycin selection (control-corrected) (log10(CPM+1)); higher = more efficient recombination; sequences stand for … in AGTGCAGAGAAAATCGGCCAGTTTTCTCTGCCTGCAGTCCGCATGCCGT…ATTTATGCAGCGGACTGCCTTTCTCCCAAAGTGATAAACCGGACAGTATCATGGACCGGTTTTCCCGGTAATCCGTATTTGCAAGGTTGGTTTCACT; site = the 11-nt target
How it was run: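 Reported as log10(CPM+1), each value stands for recombination efficiency. That efficiency is the averaged, control-corrected counts per million of barcodes found at recombinant junctions. Cells from a pooled E. coli library pairing targets with IS621 bridge RNA target-binding loops were plated twice on chloramphenicol/ampicillin LB agar (control) and twice on chloramphenicol/ampicillin/kanamycin with 0.1 mM IPTG.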

Sequence | recombinant barcode read abundance (log10)
GTCGCCCCTTGGGTTCTAACCTGTTGCTAAC [GTCGCCCCTTA_LTGcore_CT_RTGcore_GT] (site GTCGCCCCTTA) (LTG core: CT, RTG core: GT) | 0.102
GTCGCCCCTTGGGTTCTAACCTGTTGCTAAG [GTCGCCCCTTA_LTGcore_CT_RTGcore_CT] (site GTCGCCCCTTA) (LTG core: CT, RTG core: CT) | 0.234
GTCGCCCCTTGGGTTCTAACCTGTTGCTATA [GTCGCCCCTTA_LTGcore_CT_RTGcore_TA] (site GTCGCCCCTTA) (LTG core: CT, RTG core: TA) | 0.0812
GTCGCCCCTTGGGTTCTAACCTGTTGCTATG [GTCGCCCCTTA_LTGcore_CT_RTGcore_CA] (site GTCGCCCCTTA) (LTG core: CT, RTG core: CA) | 0.725
GTCGCCCCTTGGGTTCTAACCTGTTGCTATT [GTCGCCCCTTA_LTGcore_CT_RTGcore_AA] (site GTCGCCCCTTA) (LTG core: CT, RTG core: AA) | 0.214
GTCGCCCGGTGGGTTCTAACCTGTTGCTAAG [GTCGCCCCTTA_LTGcore_GG_RTGcore_CT] (site GTCGCCCCTTA) (LTG core: GG, RTG core: CT) | 0.0246
GTCGCCCGTTGGGTTCTAACCTGTTGCTAAC [GTCGCCCCTTA_LTGcore_GT_RTGcore_GT] (site GTCGCCCCTTA) (LTG core: GT, RTG core: GT) | 0.146
GTCGCCCTATGGGTTCTAACCTGTTGCTATA [GTCGCCCCTTA_LTGcore_TA_RTGcore_TA] (site GTCGCCCCTTA) (LTG core: TA, RTG core: TA) | 0.394
GTCGCCCTTTGGGTTCTAACCTGTTGCTAAA [GTCGCCCCTTA_LTGcore_TT_RTGcore_TT] (site GTCGCCCCTTA) (LTG core: TT, RTG core: TT) | 0.0974
GTCGCCCTTTGGGTTCTAACCTGTTGCTAAG [GTCGCCCCTTA_LTGcore_TT_RTGcore_CT] (site GTCGCCCCTTA) (LTG core: TT, RTG core: CT) | 0.137
TAAGAATAATGGGTTCTAACCTGTTGCCTAG [TAAGAATCTAG_LTGcore_AA_RTGcore_CT] (site TAAGAATCTAG) (LTG core: AA, RTG core: CT) | 0.232
TAAGAATATTGGGTTCTAACCTGTTGCCTAG [TAAGAATCTAG_LTGcore_AT_RTGcore_CT] (site TAAGAATCTAG) (LTG core: AT, RTG core: CT) | 0.124
TAAGAATCATGGGTTCTAACCTGTTGCCTTG [TAAGAATCTAG_LTGcore_CA_RTGcore_CA] (site TAAGAATCTAG) (LTG core: CA, RTG core: CA) | 1.03
TAAGAATCGTGGGTTCTAACCTGTTGCCTCG [TAAGAATCTAG_LTGcore_CG_RTGcore_CG] (site TAAGAATCTAG) (LTG core: CG, RTG core: CG) | 0.0781
TAAGAATCTTGGGTTCTAACCTGTTGCCTAG [TAAGAATCTAG_LTGcore_CT_RTGcore_CT] (site TAAGAATCTAG) (LTG core: CT, RTG core: CT) | 1.3
TAAGAATCTTGGGTTCTAACCTGTTGCCTAT [TAAGAATCTAG_LTGcore_CT_RTGcore_AT] (site TAAGAATCTAG) (LTG core: CT, RTG core: AT) | 0.0438
TAAGAATCTTGGGTTCTAACCTGTTGCCTTA [TAAGAATCTAG_LTGcore_CT_RTGcore_TA] (site TAAGAATCTAG) (LTG core: CT, RTG core: TA) | 0.138
TAAGAATCTTGGGTTCTAACCTGTTGCCTTC [TAAGAATCTAG_LTGcore_CT_RTGcore_GA] (site TAAGAATCTAG) (LTG core: CT, RTG core: GA) | 0.243
TAAGAATGATGGGTTCTAACCTGTTGCCTTC [TAAGAATCTAG_LTGcore_GA_RTGcore_GA] (site TAAGAATCTAG) (LTG core: GA, RTG core: GA) | 0.176
TAAGAATTGTGGGTTCTAACCTGTTGCCTAG [TAAGAATCTAG_LTGcore_TG_RTGcore_CT] (site TAAGAATCTAG) (LTG core: TG, RTG core: CT) | 0.153
TAAGAATTTTGGGTTCTAACCTGTTGCCTAA [TAAGAATCTAG_LTGcore_TT_RTGcore_TT] (site TAAGAATCTAG) (LTG core: TT, RTG core: TT) | 0.156
TAGAGGGATTGGGTTCTAACCTGTTGCGGAT [TAGAGGGCTCC_LTGcore_AT_RTGcore_AT] (site TAGAGGGCTCC) (LTG core: AT, RTG core: AT) | 0.237
TAGAGGGCCTGGGTTCTAACCTGTTGCGGAG [TAGAGGGCTCC_LTGcore_CC_RTGcore_CT] (site TAGAGGGCTCC) (LTG core: CC, RTG core: CT) | 2.4

Sequence | recombinant barcode read abundance (log10)
TAGAGGGCTTGGGTTCTAACCTGTTGCGGAT [TAGAGGGCTCC_LTGcore_CT_RTGcore_AT] (site TAGAGGGCTCC) (LTG core: CT, RTG core: AT) | 0.779
TAGAGGGCTTGGGTTCTAACCTGTTGCGGCA [TAGAGGGCTCC_LTGcore_CT_RTGcore_TG] (site TAGAGGGCTCC) (LTG core: CT, RTG core: TG) | 1.66
TAGAGGGGCTGGGTTCTAACCTGTTGCGGGC [TAGAGGGCTCC_LTGcore_GC_RTGcore_GC] (site TAGAGGGCTCC) (LTG core: GC, RTG core: GC) | 0.0588
TAGAGGGGTTGGGTTCTAACCTGTTGCGGAC [TAGAGGGCTCC_LTGcore_GT_RTGcore_GT] (site TAGAGGGCTCC) (LTG core: GT, RTG core: GT) | 0.189
TAGAGGGTATGGGTTCTAACCTGTTGCGGAG [TAGAGGGCTCC_LTGcore_TA_RTGcore_CT] (site TAGAGGGCTCC) (LTG core: TA, RTG core: CT) | 0.204
TAGAGGGTATGGGTTCTAACCTGTTGCGGTA [TAGAGGGCTCC_LTGcore_TA_RTGcore_TA] (site TAGAGGGCTCC) (LTG core: TA, RTG core: TA) | 0.481
TCGCGACACTGGGTTCTAACCTGTTGCCGGT [TCGCGACCTCG_LTGcore_AC_RTGcore_AC] (site TCGCGACCTCG) (LTG core: AC, RTG core: AC) | 0.102
TCGCGACAGTGGGTTCTAACCTGTTGCCGCT [TCGCGACCTCG_LTGcore_AG_RTGcore_AG] (site TCGCGACCTCG) (LTG core: AG, RTG core: AG) | 0.128
TCGCGACATTGGGTTCTAACCTGTTGCCGAG [TCGCGACCTCG_LTGcore_AT_RTGcore_CT] (site TCGCGACCTCG) (LTG core: AT, RTG core: CT) | 0.0137
TCGCGACCATGGGTTCTAACCTGTTGCCGTG [TCGCGACCTCG_LTGcore_CA_RTGcore_CA] (site TCGCGACCTCG) (LTG core: CA, RTG core: CA) | 0.139
TCGCGACCCTGGGTTCTAACCTGTTGCCGGG [TCGCGACCTCG_LTGcore_CC_RTGcore_CC] (site TCGCGACCTCG) (LTG core: CC, RTG core: CC) | 0.353
TCGCGACCTTGGGTTCTAACCTGTTGCCGCC [TCGCGACCTCG_LTGcore_CT_RTGcore_GG] (site TCGCGACCTCG) (LTG core: CT, RTG core: GG) | 0.0891
TCGCGACCTTGGGTTCTAACCTGTTGCCGTT [TCGCGACCTCG_LTGcore_CT_RTGcore_AA] (site TCGCGACCTCG) (LTG core: CT, RTG core: AA) | 0.0373
TCGCGACGTTGGGTTCTAACCTGTTGCCGAG [TCGCGACCTCG_LTGcore_GT_RTGcore_CT] (site TCGCGACCTCG) (LTG core: GT, RTG core: CT) | 0.391
TCTACCCACTGGGTTCTAACCTGTTGCTGGT [TCTACCCCTCA_LTGcore_AC_RTGcore_AC] (site TCTACCCCTCA) (LTG core: AC, RTG core: AC) | 0.045
TCTACCCATTGGGTTCTAACCTGTTGCTGAT [TCTACCCCTCA_LTGcore_AT_RTGcore_AT] (site TCTACCCCTCA) (LTG core: AT, RTG core: AT) | 0.00785
TCTACCCCCTGGGTTCTAACCTGTTGCTGGG [TCTACCCCTCA_LTGcore_CC_RTGcore_CC] (site TCTACCCCTCA) (LTG core: CC, RTG core: CC) | 0.0201
TCTACCCCTTGGGTTCTAACCTGTTGCTGAA [TCTACCCCTCA_LTGcore_CT_RTGcore_TT] (site TCTACCCCTCA) (LTG core: CT, RTG core: TT) | 0.241
TCTACCCCTTGGGTTCTAACCTGTTGCTGGG [TCTACCCCTCA_LTGcore_CT_RTGcore_CC] (site TCTACCCCTCA) (LTG core: CT, RTG core: CC) | 0.28
TCTACCCCTTGGGTTCTAACCTGTTGCTGTG [TCTACCCCTCA_LTGcore_CT_RTGcore_CA] (site TCTACCCCTCA) (LTG core: CT, RTG core: CA) | 0.182
TCTACCCTGTGGGTTCTAACCTGTTGCTGAG [TCTACCCCTCA_LTGcore_TG_RTGcore_CT] (site TCTACCCCTCA) (LTG core: TG, RTG core: CT) | 0.0669
TCTACCCTGTGGGTTCTAACCTGTTGCTGCA [TCTACCCCTCA_LTGcore_TG_RTGcore_TG] (site TCTACCCCTCA) (LTG core: TG, RTG core: TG) | 0.0126
